According to the NIST ThermoML archive (doi:10.1021/je2010837):

Settings: 101.33 kPa, Liquid; for viscosity: Concentric cylinders viscometry; for electrical conductivity: Direct current cell with electrodes

CCCC[N+]1(C)CCCC1.O=S(=O)([N-]S(=O)(=O)C(F)(F)F)C(F)(F)F
Settings | electrical conductivity [S/m] | mass density [kg/m3] | viscosity [mPa·s]
293.15 K | – | 1399 | –
298.15 K | 0.277 | 1394.57 | 76.73
299.15 K | 0.288 | – | –
300.15 K | 0.3 | – | –
301.15 K | 0.313 | – | –
302.15 K | 0.327 | – | –
303.15 K | 0.34 | 1390.02 | 61.67
304.15 K | 0.354 | – | –
305.15 K | 0.368 | – | –
306.15 K | 0.383 | – | –
307.15 K | 0.398 | – | –
308.15 K | 0.412 | 1385.48 | 50.49
309.15 K | 0.427 | – | –
310.15 K | 0.443 | – | –
311.15 K | 0.459 | – | –
312.15 K | 0.475 | – | –
313.15 K | 0.492 | 1380.93 | 41.73
314.15 K | 0.509 | – | –
315.15 K | 0.527 | – | –
316.15 K | 0.544 | – | –
317.15 K | 0.562 | – | –
318.15 K | 0.58 | 1376.28 | 34.67
319.15 K | 0.598 | – | –
320.15 K | 0.616 | – | –
321.15 K | 0.635 | – | –
322.15 K | 0.655 | – | –
323.15 K | 0.673 | 1371.64 | 29.48
324.15 K | 0.694 | – | –
325.15 K | 0.713 | – | –
326.15 K | 0.733 | – | –
327.15 K | 0.754 | – | –
328.15 K | 0.775 | 1366.9 | 25.43
329.15 K | 0.795 | – | –
330.15 K | 0.816 | – | –
331.15 K | 0.839 | – | –
332.15 K | 0.86 | – | –
333.15 K | 0.884 | 1362.2 | 21.9
334.15 K | 0.911 | – | –
335.15 K | 0.938 | – | –
336.15 K | 0.965 | – | –
337.15 K | 0.993 | – | –
338.15 K | 1.02 | 1357.35 | 19.16
339.15 K | 1.05 | – | –
340.15 K | 1.08 | – | –
341.15 K | 1.11 | – | –
342.15 K | 1.13 | – | –
343.15 K | 1.17 | 1352.44 | 16.82
344.15 K | 1.2 | – | –
345.15 K | 1.23 | – | –
346.15 K | 1.26 | – | –
347.15 K | 1.29 | – | –
348.15 K | 1.32 | 1347.48 | 14.8
349.15 K | 1.36 | – | –
350.15 K | 1.4 | – | –
351.15 K | 1.43 | – | –
352.15 K | 1.46 | – | –
353.15 K | 1.49 | 1342.48 | 13.24

CCCC[n+]1ccn(C)c1.O=S(=O)([N-]S(=O)(=O)C(F)(F)F)C(F)(F)F
Settings | electrical conductivity [S/m] | mass density [kg/m3] | viscosity [mPa·s]
293.15 K | – | 1439.27 | –
298.15 K | 0.402 | 1434.3 | 50.05
299.15 K | 0.417 | – | –
300.15 K | 0.435 | – | –
301.15 K | 0.453 | – | –
302.15 K | 0.47 | – | –
303.15 K | 0.488 | 1429.4 | 41.24
304.15 K | 0.506 | – | –
305.15 K | 0.524 | – | –
306.15 K | 0.543 | – | –
307.15 K | 0.562 | – | –
308.15 K | 0.581 | 1424.57 | 33.65
309.15 K | 0.602 | – | –
310.15 K | 0.622 | – | –
311.15 K | 0.643 | – | –
312.15 K | 0.664 | – | –
313.15 K | 0.684 | 1419.61 | 28.28
314.15 K | 0.706 | – | –
315.15 K | 0.729 | – | –
316.15 K | 0.751 | – | –
317.15 K | 0.773 | – | –
318.15 K | 0.795 | 1414.67 | 23.91
319.15 K | 0.82 | – | –
320.15 K | 0.842 | – | –
321.15 K | 0.866 | – | –
322.15 K | 0.891 | – | –
323.15 K | 0.921 | 1409.65 | 20.64
324.15 K | 0.949 | – | –
325.15 K | 0.983 | – | –
326.15 K | 1.01 | – | –
327.15 K | 1.04 | – | –
328.15 K | 1.07 | 1404.64 | 17.9
329.15 K | 1.1 | – | –
330.15 K | 1.14 | – | –
331.15 K | 1.17 | – | –
332.15 K | 1.21 | – | –
333.15 K | 1.24 | 1399.6 | 15.51
334.15 K | 1.27 | – | –
335.15 K | 1.31 | – | –
336.15 K | 1.34 | – | –
337.15 K | 1.38 | – | –
338.15 K | 1.41 | 1394.43 | 13.71
339.15 K | 1.45 | – | –
340.15 K | 1.48 | – | –
341.15 K | 1.52 | – | –
342.15 K | 1.55 | – | –
343.15 K | 1.59 | 1389.16 | 12.09
344.15 K | 1.63 | – | –
345.15 K | 1.67 | – | –
346.15 K | 1.71 | – | –
347.15 K | 1.74 | – | –
348.15 K | 1.78 | 1383.85 | 10.78
349.15 K | 1.82 | – | –
350.15 K | 1.86 | – | –
351.15 K | 1.9 | – | –
352.15 K | 1.94 | – | –
353.15 K | 1.98 | 1378.53 | 9.69
